“And” between values parts separate entries of the source, which are not always exact repeats. Equal values may be shown once.
Settings: Fluid (supercritical or subcritical phases); for mass density: Buoyancy - hydrostatic balance with magnetic suspension - one sinker; for viscosity: vibrating wire

CCC [propane]
Settings | mass density | viscosity
373.15 K, 4515.1 kPa | 229.821 kg/m3 | 0.02377 mPa·s
373.15 K, 4530.1 kPa | 241.836 kg/m3 | 0.02518 mPa·s
373.15 K, 4530.2 kPa | 241.88 kg/m3 | 0.02519 mPa·s
373.15 K, 4556 kPa | 256.611 kg/m3 | 0.02701 mPa·s
373.15 K, 4556.1 kPa | 256.634 kg/m3 | 0.027 mPa·s
373.15 K, 4576.2 kPa | 264.588 kg/m3 | 0.02805 mPa·s
373.15 K, 4576.3 kPa | 264.609 kg/m3 | 0.02806 mPa·s
373.15 K, 4606.1 kPa | 273.294 kg/m3 and 273.287 kg/m3 | 0.02925 mPa·s and 0.02926 mPa·s
373.15 K, 4657.2 kPa | 283.68 kg/m3 | 0.03078 mPa·s
373.15 K, 4657.5 kPa | 283.727 kg/m3 | 0.03078 mPa·s
373.15 K, 4809.3 kPa | 301.877 kg/m3 | 0.03369 mPa·s
373.15 K, 4809.5 kPa | 301.894 kg/m3 | 0.03367 mPa·s
373.15 K, 5105.6 kPa | 320.889 kg/m3 | 0.03705 mPa·s
373.15 K, 5105.8 kPa | 320.902 kg/m3 | 0.03706 mPa·s
373.15 K, 5614.7 kPa | 339.536 kg/m3 | 0.04075 mPa·s
373.15 K, 5616.4 kPa | 339.584 kg/m3 | 0.04077 mPa·s
373.15 K, 5652.1 kPa | 340.592 kg/m3 | 0.04096 mPa·s
373.15 K, 5664.6 kPa | 340.939 kg/m3 | 0.04104 mPa·s
373.15 K, 5665.9 kPa | 340.974 kg/m3 | 0.04105 mPa·s
373.15 K, 6602.8 kPa | 360.84 kg/m3 | 0.04555 mPa·s
373.15 K, 6603.5 kPa | 360.852 kg/m3 | 0.04553 mPa·s
373.15 K, 8140.1 kPa | 381.197 kg/m3 | 0.05077 mPa·s
373.15 K, 8140.4 kPa | 381.2 kg/m3 | 0.05076 mPa·s
373.15 K, 10482 kPa | 401.46 kg/m3 | 0.05673 mPa·s
373.15 K, 10483 kPa | 401.469 kg/m3 | 0.05674 mPa·s
373.15 K, 13841 kPa | 421.334 kg/m3 and 421.333 kg/m3 | 0.06347 mPa·s and 0.06343 mPa·s
373.15 K, 18565 kPa | 441.166 kg/m3 | 0.07127 mPa·s
373.15 K, 18567 kPa | 441.173 kg/m3 | 0.07127 mPa·s
373.15 K, 25008 kPa | 460.907 kg/m3 | 0.08006 mPa·s and 0.08024 mPa·s
373.15 K, 25010 kPa | 460.912 kg/m3 | 0.08022 mPa·s and 0.08013 mPa·s
373.15 K, 28973 kPa | 470.682 kg/m3 | 0.08526 mPa·s
373.15 K, 28975 kPa | 470.686 kg/m3 | 0.08531 mPa·s and 0.08536 mPa·s and 0.0853 mPa·s
373.15 K, 29829 kPa | 472.623 kg/m3 | 0.08626 mPa·s
373.15 K, 29830 kPa | 472.624 kg/m3 | 0.08626 mPa·s
423.15 K, 79.37 kPa | 0.99883 kg/m3 | 0.01136 mPa·s
423.15 K, 158.25 kPa | 1.9998 kg/m3 | 0.01137 mPa·s
423.15 K, 313.56 kPa | 3.9954 kg/m3 | 0.0114 mPa·s
423.15 K, 466.92 kPa | 5.9988 kg/m3 | 0.01142 mPa·s
423.15 K, 467.03 kPa | 6.0003 kg/m3 | 0.01143 mPa·s
423.15 K, 611.2 kPa | 7.9148 kg/m3 | 0.01145 mPa·s
423.15 K, 611.47 kPa | 7.9184 kg/m3 | 0.01145 mPa·s
423.15 K, 763.44 kPa | 9.9704 kg/m3 | 0.01148 mPa·s
423.15 K, 763.61 kPa | 9.9726 kg/m3 | 0.01148 mPa·s
423.15 K, 920.8 kPa | 12.133 kg/m3 | 0.01151 mPa·s and 0.01152 mPa·s
423.15 K, 1060.2 kPa | 14.082 kg/m3 | 0.01155 mPa·s
423.15 K, 1061.3 kPa | 14.098 kg/m3 | 0.01155 mPa·s
423.15 K, 1192.7 kPa | 15.966 kg/m3 | 0.01158 mPa·s
423.15 K, 1193.5 kPa | 15.977 kg/m3 | 0.01158 mPa·s
423.15 K, 1334.7 kPa | 18.018 kg/m3 | –

From the NIST ThermoML archive (doi:10.1021/je101178u)
